According to patent US20230407373A1 (priority 2020, published 2023):
Entries after “also recorded” stand apart in the source; their conditions may differ. Read-outs that look alike come from different tables or passages of the source.

Tests used:
[1] = system: SARS-CoV-2 gRNA; assay type: binding; conditions: for target (unweighted spectral count of the protein in the RNP capture): LC-MS/MS, Probe I sample (first 199 lines of Table 2)
[2] = system: gRNA of HCoV-OC43; assay type: binding; conditions: for target (spectral count, OC43 Probe I RNP capture) / background (spectral count, no-probe control): type n_48_v: 48 hours post-infection; for target (spectral count, OC43 Probe I RNP capture): infected cells, unweighted spectral count; for background (spectral count, no-probe control): no-probe control on infected cells; for target (spectral count) / background (spectral count): type g_36_m, 36 hpi, Probe I; for target (spectral count): HCoV-OC43-infected HCT-8 cells; for background (spectral count): uninfected-probe control
[3] = system: SARS-CoV-2 gRNA and sgRNAs; assay type: binding; conditions: for target (unweighted spectral count in RNP capture): Probe II capture, LC-MS/MS LFQ; for background (unweighted spectral count in control): no-probe control pull-down, used as background for Probe II
[4] = system: HCoV-OC43 gRNA and sgRNA; assay type: binding; conditions: for target (unweighted spectral count, OC43 Probe II capture) / target (unweighted spectral count): tested against no-probe control; for target (unweighted spectral count, OC43 Probe II capture): FDR<10%; for target (unweighted spectral count, OC43 Probe II) / background (unweighted spectral count, no-probe control): type n_48_v, 48 hpi; for target (unweighted spectral count, OC43 Probe II): OC43 Probe II capture on infected cells; for background (unweighted spectral count, no-probe control): no-probe control on infected cells; for target (unweighted spectral count): OC43 Probe II, infected cells; for target (spectral count) / background (spectral count): type s_36_m, Probe II; for target (spectral count): HCoV-OC43-infected HCT-8 cells; for background (spectral count): uninfected-probe control
[5] = system: SARS-CoV-2; assay type: cell-based; conditions: Calu-3 cells, 50 nM siRNA, RT-qPCR, relative to siNC

Substance | target (unweighted spectral count of the protein in the RNP capture) ([1]; […]) | target (spectral count, OC43 Probe I RNP capture) [2] | background (spectral count, no-probe control) [2] | target (unweighted spectral count, OC43 Probe II capture) ([4]; 36 hpi, type n_36_v) | target (unweighted spectral count, OC43 Probe II) [4] | background (unweighted spectral count, no-probe control) [4] | target (unweighted spectral count in RNP capture) ([3]; […]) | background (unweighted spectral count in control) [3] | target (unweighted spectral count) ([4]; 12 hpi (type n_12_v)) | target (spectral count) ([4]; 36 hpi) | background (spectral count) ([4]; 36 hpi) | target (spectral count) [2] | background (spectral count) [2] | target (unweighted spectral count) ([4]; 24 hpi (type n_24_v)) | further results
SAFB2 | 8 | 9 | 1 | 5 | 7 | 1 |  |  |  |  |  |  |  |  | target (unweighted spectral count of the protein in the RNP capture experiment) ([3]; […], LC-MS/MS label-free quantification, probe pool not given): 6; back-ground (unweighted spectral count of the protein in the control experiment) ([3]; protein background of the control (e.g. no-probe) experiment, […]): 1
TAF15: host protein, UniProt Q92804 |  | 11 | 1 |  | 8 | 1 | 8 | 1 | 5 | 8 | 1 |  |  |  | target (unweighted spectral count in RNP capture) ([1]; Probe I capture, […], LC-MS/MS LFQ): 5; background (unweighted spectral count in control) ([1]; no-probe control pull-down, used as background for Probe I): 1
HNRNPAB | 44 | 37 | 2 | 21 | 27 | 2 | 44 | 1 | 10 |  |  |  |  |  | 
TRIM25: host protein, UniProt Q14258 |  |  |  |  | 13 | 3 | 20 | 1 |  |  |  | 14 | 1 |  | change in viral RNA levels (gRNA, N sgRNA) after siRNA depletion [5]: increased viral RNAs; target (unweighted spectral count, OC43 Probe II capture) ([4]; 24 hpi, type n_24_v): 5
HNRNPU | 75 | 80 | 8 | 69 | 72 | 8 |  | 3 | 24 |  |  |  |  | 40 | 
YBX3: host protein, UniProt P16989 | 41 |  |  |  |  |  | 73 | 1 | 7 |  |  | 13 | 2 | 10 | 
TARDBP | 28 | 28 | 3 | 19 | 22 | 3 | 30 | 1 | 10 |  |  |  |  | 20 | 
EIF4H: host protein, UniProt Q15056 | 25 | 9 | 1 | 8 | 9 | 1 | 31 | 1 |  | 8 | 1 | 8 | 1 |  | enrichment in SARS-CoV-2 Probe I RNP capture [1]: enriched; also recorded: found in the SARS-CoV-2 experiments; enrichment in SARS-CoV-2 Probe II RNP capture [3]: enriched; also recorded: found in the SARS-CoV-2 experiments; target (unweighted spectral count, OC43 Probe II capture) ([4]; 24 hpi, type n_24_v): 5
PABPC1: host protein, UniProt P11940 | 29 | 23 | 2 | 23 | 26 | 2 |  |  | 7 | 29 | 3 | 22 | 1 | 18 | enrichment in SARS-CoV-2 Probe I RNP capture [1]: enriched; also recorded: found in the SARS-CoV-2 experiments; enrichment in SARS-CoV-2 Probe II RNP capture [3]: enriched; also recorded: found in the SARS-CoV-2 experiments
PTBP3: host protein, UniProt O95758 | 23 | 14 | 2 | 8 | 12 | 2 |  | 1 |  | 8 | 1 | 11 | 1 | 7 | enrichment in SARS-CoV-2 Probe I RNP capture [1]: found in the SARS-CoV-2 experiments; enrichment in SARS-CoV-2 Probe II RNP capture [3]: found in the SARS-CoV-2 experiments
XRCC6 | 10 | 12 | 1 | 11 | 17 | 1 | 9 | 1 |  |  |  |  |  | 7 | 
